Data as given in patent publication US5753240A, “Fluorinated compounds and compositions comprising them” (L'Oreal, priority 1994, dated 1998).

Experiments:
Format in all cases: physicochemical
[1] = Thickening effect of Example 1 on various vehicles: Sunflower oil; conditions: 0.2% in Sunflower oil
Procedure: (§1) The thickening of the medium can be carried out by completely dissolving the fluorinated compound of formula I, at a temperature ranging from 20° C. to 80° C., and then by allowing the mixture to stand until it is completely thickened.
(§2) Thickening effect of Example 1 on various vehicles
(§3) As is evident, Sunflower refers to Sunflower oil and Parleam refers to Parleam oil. Eutanol G is a tradename for octyldodecanol and is manufactured by Henkel.
(§4) Gelled media were thus obtained.

[2] = Thickening effect of Example 1 on various vehicles: Olive oil; conditions: 0.2% in Olive oil
Procedure: as §1, §2, §4

[3] = Stability of the thickened (gelled) media over time; conditions: over a period of over 6 months
Description: as §4

[4] = Thickening effect of Example 1 on various vehicles: Perhydrosqualene; conditions: 0.2% in Perhydrosqualene
Procedure: as §1, §2, §4

[5] = Thickening effect of Example 1 on various vehicles: Petroleum jelly; conditions: 0.2% in Petroleum jelly
Procedure: as §1, §2, §4

[6] = Thickening effect of Example 1 on various vehicles: Parleam oil; conditions: 0.2% in Parleam oil
Procedure: as §1, §2, §3, §4

CCCCCCCCCCCCCCCCOC(=O)NCCCCCCCCCCC(=O)OCCC(F)(F)C(F)(F)C(F)(F)C(F)(F)C(F)(F)C(F)(F)C(F)(F)C(F)(F)F [Example 1, 2-(F-octyl)ethyl 11-(N-hexadecyloxycarbonyl)aminoundecanoate]
no effect: Thickening effect [1] | Thickening effect [2] | Thickening effect [4] | Thickening effect [5] | Thickening effect [6]
perfect stability: Stability of thickened media [3]
